{"source": "patent US20080306019A1", "about": "“Dopamine Receptor Agonists in the Treatment and Prevention of Hiv-Induced Dementia” (priority 2005, published 2008)", "key": {"rat hippocampal neurons": {"test_system": "rat hippocampal neurons", "experiment": "Live/Dead (Calcein/Ethidium) viability of rat hippocampal neuronal cultures"}, "human fetal neurons": {"test_system": "human fetal neurons", "conditions": "for magnitude of cell death vs Locke's buffer control: HIV proteins plus cocaine challenge with steroid pretreatment; for neuroprotection against synergistic toxicity of HIV proteins plus cocaine (percent neuronal death): pretreatment before Tat1-72 (40 nM) + gp120 (32.5 pM) + cocaine (1.6 μM)", "procedure": "Culture of Human Brain Cells: Neuronal cultures were prepared as described previously (Magnuson D S, et al. Ann Neurol 1995, 37: 373-380; Nath A, et al. J Virol 1996, 70: 1475-1480; New D, et al. J Neurovirol 1997, 3: 168-173). Human fetal brain specimens of gestational age 12-14 weeks were obtained with the consent of women opting for elective termination of pregnancy. Protocols were carried out with strict adherence to the guidelines of the National Institutes of Health (NIH) and with approval from the University of Kentucky Institutional Review Board. Briefly, after mechanical dissociation, the cells were suspended in Opti-MEM with 5% heat-inactivated fetal bovine serum, 0.2% N2 supplement and 1% antibiotic solution (penicillin G sodium 104 units/ml, streptomycin sulfate 10 μg/ml and amphotericin-B 25 μg/ml) (GIBCO). The cells were maintained in culture flasks at 37° C. in a humidified atmosphere of 5% CO2 and 95% air for at least a month. At least 3 days before the experiment was performed the cells were plated in flat bottom 96 well plates coated with poly-d-lysine. Sample cultures were stained for the neuron-specific enolase, microtubule-associated protein-2, synaptophysin, and glial fibrillary astrocytic protein (GFAP). […] Sample cultures were further characterized for the presence of ER-α and ER-β and dopaminergic neurons.\nNeurotoxicity Assay: At the time of the experimental treatment, the culture media was replaced with Locke's buffer containing (in mM) 154 NaCl, 5.6 KCl, 2.3 CaCl2, 1 MgCl2, 3.6 NaHCO3, 5 glucose, 5 N-2-hydroxyethylpiperazine-N′2-ethanesulfonic acid (HEPES) and 1% antibiotic solution (penicillin G sodium 104 units/ml, streptomycin sulfate 10 μg/ml and amphotericin-B 25 μg/ml) (pH 7.2). […] To replicate the stereoisomer specific neuroprotective properties of estrogen, the cultures were treated with either […] (10 nM), or 17α-E2 (10 nM) immediately preceding addition of the HIV proteins plus cocaine. To investigate the neuroprotective properties of other gonadal steroids, the cells were treated with various concentrations of PROG or T, immediately followed by exposure to the HIV proteins plus cocaine. […] Various concentrations of cholesterol were used as treatment prior to incubation with the HIV proteins plus cocaine to further characterize the nature of gonadal steroid neuroprotection. ICI-182,780, DMSO (10 nM), β-cyclodextrin (100 nM) and ethanol (10 nM) were also tested for neurotoxic/protective effects. ICI-182,780 and 17α-E2 were solvated in DMSO. […], T, PROG and cholesterol were β-cyclodextrin encapsulated to provide water solubility. Ethanol was used to solvate DHT. Tat1-72 was produced as indicated above, whereas gp120 was a gift from Chiron Corporation. The ICI-182,780 compound was obtained from Tocris Cookson, Inc. (Ellisville, Mo.). All other chemical agents were supplied by Sigma Chemicals (St. Louis, Mo.). At the end of the incubation period neuronal death was assessed by trypan blue (Sigma) exclusion assay as described previously (Vongher J and Frye C. Pharmacol Biochem Behav 1999, 64: 777-785; Magnuson D S, et al. Ann Neurol 1995, 37: 373-380; Nath A, et al. J Virol 1996, 70: 1475-1480)."}, "SK-N-SH cells": {"test_system": "SK-N-SH cells", "experiment": "DCFH fluorescence (oxidative stress) in SK-N-SH cells", "assay_type": "cell-based, human", "conditions": "for effect of hormone on tat+gp120-induced fluorescence: gp120 (30 pM)+tat (60 nM), hormone 0.1 to 100 nM", "procedure": "Cell Culture Assays: SK-N-SH cells (ATCC) were grown in RPMI 1640 with 1% streptomycin/amphotericin and 10% FBS and incubated at 37° C. in the presence of 5% CO2. Cells were subcultured into 96-well plates at a density of 10^4 cell/well and used within 24 hours. Plates were first washed with warmed Krebs buffer (KHB). Stock DCFH in DMSO was diluted in KHB to a final concentration of 100 μM and incubated in each well for 30 minutes. DCFH dye was removed and cells were washed with warmed KHB and the appropriate drug or drug combination was added. Plates were returned to the incubator and drugs were allowed to incubate for 30 minutes. Incubation with the free radical generator SIN-1 (3-morpholinosydnonimine-peroxynitrite and superoxide) was carried out for an additional 30 minutes. The second series of experiments utilized tat (10-250 nM) or gp120 (25-100 pM) in place of the free radical generator.\nThe concentration of either E2 or progesterone was 0.1 to 100 nM. Plates were returned to the incubator with the hormones and were allowed to incubate for 15 minutes. SIN-1 (50 μM) was chosen as the free radical generator due to the production of peroxynitrite. Previous studies have shown that this concentration of SIN-1 yielded maximum increases in DCFH fluorescence (Wang and Joseph, 1999). In groups that examined the protective effects of E2 and/or progesterone, the hormone was added 15 minutes prior to addition of SIN-1, tat or gp120. Studies that have examined the simultaneous addition of the oxidative stress agent and hormone have yielded attenuated results. Following incubation with SIN-1, tat or gp120 (depending on the assay), fluorescence was determined by using a Bio-Tek plate reader with the settings of 485 n (excitation) and 585 nm (emission) with an integration time of 40 ms. Assays were run four separate times in triplicate. Data are expressed as mean of the separate assays±SEM."}, "Sprague-Dawley rats": {"test_system": "Sprague-Dawley rats", "experiment": "Neonatal hippocampal gp120 injections with or without apomorphine: PPI in adult rats", "assay_type": "in vivo, rat"}, "dopamine transporter": {"molecular_target": "T1, dopamine transporter (Rattus norvegicus, UniProt P23977)", "T1 construct": "followed by differential centrifugation resulting in a crude P2 preparation; from tissue; host or cells: rat striatum (synaptosomes, crude P2 preparation)", "T1 sequence (P23977 whole entry)": "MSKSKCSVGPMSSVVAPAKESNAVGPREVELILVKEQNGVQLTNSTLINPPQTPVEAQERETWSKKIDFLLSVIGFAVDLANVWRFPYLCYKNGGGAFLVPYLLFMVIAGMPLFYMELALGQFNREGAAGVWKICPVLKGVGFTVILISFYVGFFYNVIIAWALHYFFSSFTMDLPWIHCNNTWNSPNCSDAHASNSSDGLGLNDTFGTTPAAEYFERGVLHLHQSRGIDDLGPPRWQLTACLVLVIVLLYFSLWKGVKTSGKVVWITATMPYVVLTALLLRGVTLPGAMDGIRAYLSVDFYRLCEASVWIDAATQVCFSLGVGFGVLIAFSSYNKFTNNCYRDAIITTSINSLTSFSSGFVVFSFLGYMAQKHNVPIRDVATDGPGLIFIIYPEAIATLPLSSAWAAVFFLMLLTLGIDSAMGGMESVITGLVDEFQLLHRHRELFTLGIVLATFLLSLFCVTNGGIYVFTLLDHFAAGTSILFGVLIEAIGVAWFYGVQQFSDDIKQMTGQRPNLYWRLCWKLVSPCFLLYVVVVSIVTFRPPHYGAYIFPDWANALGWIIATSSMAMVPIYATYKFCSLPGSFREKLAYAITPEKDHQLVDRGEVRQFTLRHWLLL", "experiment": "[3H] dopamine uptake in rat striatal synaptosomes", "assay_type": "biochemical", "procedure": "[^3H] Dopamine uptake in synaptosomes assays: Striatal tissue from 4-5 month old male Sprague-Dawley rats (N=4) was homogenized in 5 mL ice-cold 0.32 M sucrose using a glass/Teflon homogenizer followed by differential centrifugation resulting in a crude P2 preparation. Crude P2 preparations are resuspended to a final volume of 15 mL (0.13-0.15 μg protein/tube) in assay buffer (consisting of 25 mM HEPES, 120 mM NaCl, 5 mM KCl, 2.5 mM CaCl2, 1.2 mM MgSO4, […] ascorbic acid, 1 μM pargyline and 2 mg/mL D-(+) glucose). P2 preparation was then added to assay tubes in 400 μL, followed by 50 μL of buffer or drug. Uptake was initiated by the addition of [7, 8 ^3H] dopamine, 0.02 M acetic acid:ethanol (1:1) solution (Amersham Biosciences, UK). Synaptosomes were preincubated first with 100 nM E2 30 minutes to the initiation of uptake, followed by addition of the appropriate concentrations of gp120 (30 pM) and tat (60 nM), or both proteins, 15 minutes prior to the start of the uptake assay. […] Filters were washed 15 seconds with ice-cold 0.9% NaCl and total [^3H] dopamine uptake was determined by scintillation spectrophotometry. Nonspecific uptake was determined in a parallel set of tubes run in the presence of 1 μM Mazindol, a dopamine uptake inhibitor. Data are expressed as the mean±SEM (N=4)."}, "[1]": {"conditions": "HIV proteins plus cocaine challenge"}}, "data": [{"smiles": "CN1CCc2cc(Cl)c(O)cc2[C@@H](c2ccccc2)C1", "note": "[SCH 23390]", "values": [{"measurement": "neuronal cell viability, SCH 23390 alone", "setting": "rat hippocampal neurons; 0.1 to 10 μM", "result": "did not cause any changes in neuronal cell viability"}]}, {"smiles": "CC(=O)[C@H]1CC[C@H]2[C@@H]3CCC4=CC(=O)CC[C@]4(C)[C@H]3CC[C@]12C", "note": "[PROG, progesterone]", "values": [{"measurement": "concentration dependence of effect on percent neuronal death", "setting": "human fetal neurons; [1]", "result": "no concentration-dependent effect"}, {"measurement": "magnitude of cell death vs Locke's buffer control", "setting": "human fetal neurons", "result": "significantly greater than that observed with Locke's Buffer control"}, {"measurement": "neuroprotection against synergistic toxicity of HIV proteins plus cocaine (percent neuronal death)", "setting": "human fetal neurons; 15 hours", "result": "significant neuroprotection"}, {"measurement": "effect of hormone on tat+gp120-induced fluorescence", "setting": "SK-N-SH cells", "result": "had no effect on tat+gp120-induced fluorescence"}]}, {"smiles": "C[C@]12CC[C@@H]3c4ccc(O)cc4C[C@@H](CCCCCCCCC[S+]([O-])CCCC(F)(F)C(F)(F)F)[C@H]3[C@@H]1CC[C@@H]2O", "note": "(stereo partly shown) [ICI-182,780]", "values": [{"measurement": "blockade of T (10 nM) neuroprotection", "setting": "human fetal neurons; ICI-182,780 100 nM pretreatment", "result": "fully blocked"}, {"measurement": "neuroprotection against synergistic toxicity of HIV proteins plus cocaine (percent neuronal death)", "setting": "human fetal neurons; 15 hours", "result": "nor was it neuroprotective against the toxic challenge"}, {"measurement": "toxicity alone vs Locke's buffer", "setting": "human fetal neurons; substance alone, 15 hours", "result": "not more toxic to the cultures than was Locke's buffer"}, {"measurement": "effect of ICI 182,780 on E2 attenuation of tat+gp120-induced fluorescence", "setting": "SK-N-SH cells; 100 nM E2+1 μM ICI 182,780", "result": "Neither progesterone nor E2+ICI 182,780 values differed significantly from control values"}]}, {"smiles": "Fc1ccc(C(OCCN2CCN(CCCc3ccccc3)CC2)c2ccc(F)cc2)cc1", "note": "[GBR-12909]", "values": [{"measurement": "neurotoxicity of GBR 12909 alone", "setting": "rat hippocampal neurons; doses from 0.05 to 6 μM", "result": "not neurotoxic"}]}, {"smiles": "C[C@]12CCC(=O)C[C@@H]1CC[C@@H]1[C@@H]2CC[C@]2(C)[C@@H](O)CC[C@@H]12", "note": "[DHT, 5α-Androstan-17β-ol-3-one; 17β-Hydroxy-5α-androstan-3-one]", "values": [{"measurement": "concentration dependence of effect on percent neuronal death", "setting": "human fetal neurons; [1]", "result": "no concentration-dependent effect"}, {"measurement": "magnitude of cell death vs Locke's buffer control", "setting": "human fetal neurons", "result": "significantly greater than that observed with Locke's Buffer control"}, {"measurement": "neuroprotection against synergistic toxicity of HIV proteins plus cocaine (percent neuronal death)", "setting": "human fetal neurons; 15 hours", "result": "significant neuroprotection"}]}, {"smiles": "CN1CCc2cccc3c2[C@H]1Cc1ccc(O)c(O)c1-3", "note": "[APO, apomorphine]", "values": [{"measurement": "peak ASR magnitude in PPI trials: gp120×drug interaction", "setting": "Sprague-Dawley rats; 8-120 msec ISIs", "result": "significantly altered the gp120 dose response"}, {"measurement": "peak ASR latency in PPI trials", "setting": "Sprague-Dawley rats; rat, in vivo", "result": "did not have an impact on latency response"}, {"measurement": "peak ASR magnitude, adaptation trials: apomorphine", "setting": "Sprague-Dawley rats; rat, in vivo", "result": "attenuated the baseline of peak magnitude of the ASR"}]}, {"smiles": "C[C@]12CC[C@@H]3c4ccc(O)cc4CC[C@H]3[C@@H]1CC[C@@H]2O", "note": "[E2, 17β-estradiol]", "values": [{"measurement": "Vmax with gp120 + tat + E2", "setting": "dopamine transporter; 100 nM E2 with gp120 and tat, control 231", "result": 220, "unit": "nmol/mg protein/minute"}, {"measurement": "effect of E2 on gp120- or tat-induced reduction of [3H] dopamine uptake", "setting": "dopamine transporter; co-incubation with 100 nM E2", "result": "reversed this reduction"}, {"measurement": "neuroprotection against synergistic toxicity of HIV proteins plus cocaine (percent neuronal death)", "setting": "human fetal neurons; 15 hours", "result": "precluded by pretreatment with 10 nM dose of 17β-E2"}, {"measurement": "SIN-1-induced fluorescence at highest concentration of E2", "setting": "SK-N-SH cells; 100 nM E2, 50 μM SIN-1", "result": "reduced fluorescence levels to control values"}, {"measurement": "lowest E2 concentration with significant reduction of SIN-1-induced fluorescence", "setting": "SK-N-SH cells; 50 μM SIN-1, E2 0.1 to 100 nM", "result": 1, "unit": "nM"}, {"measurement": "effect of hormone on tat+gp120-induced fluorescence", "setting": "SK-N-SH cells", "result": "concentrations of 1, 10 and 100 nM E2 were each significantly (p<0.001) different from control values"}]}, {"smiles": "N=c1c[n+](N2CCOCC2)[n-]o1", "note": "[SIN-1, 3-morpholinosydnonimine]", "values": [{"measurement": "lowest concentration with significant increase in fluorescence", "setting": "SK-N-SH cells; SIN-1 0-500 μM", "result": 5, "unit": "µM"}]}, {"smiles": "CC(C)CCC[C@@H](C)[C@H]1CC[C@H]2[C@@H]3CC=C4C[C@@H](O)CC[C@]4(C)[C@H]3CC[C@]12C", "note": "[Cholesterol]", "values": [{"measurement": "concentration dependence of effect on percent neuronal death", "setting": "human fetal neurons; [1]", "result": "concentration-dependent effect of cholesterol with a significant linear decrease in percent neuronal death"}, {"measurement": "concentration giving maximal / full neuroprotection", "setting": "human fetal neurons; [1]", "result": 100, "unit": "nM"}, {"measurement": "magnitude of cell death vs Locke's buffer control", "setting": "human fetal neurons", "result": "not significantly different from that observed by Locke's buffer incubation"}, {"measurement": "neuroprotection against synergistic toxicity of HIV proteins plus cocaine (percent neuronal death)", "setting": "human fetal neurons; 15 hours", "result": "Significant neuroprotection"}]}, {"smiles": "C[C@]12CC[C@@H]3c4ccc(O)cc4CC[C@H]3[C@@H]1CC[C@H]2O", "note": "[17α-E2]", "values": [{"measurement": "neuroprotection against synergistic toxicity of HIV proteins plus cocaine (percent neuronal death)", "setting": "human fetal neurons; 15 hours", "result": "not significantly different from the synergistic toxicity control"}]}]}
